This passage reports IC50 results from US11306078B2, “Piperidine CXCR7 receptor modulators” (IDORSIA PHARMACEUTICALS LTD., priority 2016, dated 2022).

In general, pIC50 refers to −log10 of the IC50, conventionally taken in molar units. A higher pIC50 goes with a low IC50.

pIC50: −log10 of the molar value.

The test deals with human chemokine receptor CXCR7 (Homo sapiens (Human), UniProt P25106). Briefly: Tango CXCR7-bla U2OS beta-arrestin recruitment assay (beta-lactamase reporter, FRET), antagonism of CXCL12/SDF1-α.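 Further: compounds preincubated 15 min before CXCL12 addition, then 22 h at 37 °C, FRET emission ratio read with CCF4-AM substrate after 2 h.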 Format: cell-based. The conditions noted are these: antagonistic effect on CXCR7, Tango CXCR7-bla U2OS cells, CXCL12/SDF1-α at its EC80. (Arrestin recruitment assays detect the binding of arrestin to an activated receptor.)
human chemokine receptor CXCR7, sequence (P25106 whole entry): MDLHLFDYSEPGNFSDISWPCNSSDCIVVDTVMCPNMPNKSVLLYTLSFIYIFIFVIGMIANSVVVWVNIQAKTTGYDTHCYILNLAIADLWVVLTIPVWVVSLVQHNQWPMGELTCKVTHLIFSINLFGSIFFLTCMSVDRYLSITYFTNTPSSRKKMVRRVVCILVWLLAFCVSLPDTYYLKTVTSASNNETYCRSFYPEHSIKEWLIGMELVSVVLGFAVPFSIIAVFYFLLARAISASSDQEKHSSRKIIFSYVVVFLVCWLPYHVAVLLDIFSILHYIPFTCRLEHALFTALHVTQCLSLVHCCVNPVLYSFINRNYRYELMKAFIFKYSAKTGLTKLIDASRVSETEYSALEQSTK

`O=C(N[C@@H]1CCN(CC2CC2)C[C@H]1C(=O)NC1(c2ncccn2)CC1)c1cc(-c2c(F)cc(F)cc2F)on1` (single isomer, unassigned) [Example 3.020a, (3R*,4R*)-1-Cyclopropylmethyl-4-{[5-(2,4,6-trifluoro-phenyl)-isoxazole-3-carbonyl]-amino}-piperidine-3-carboxylic acid (1-pyrimidin-2-yl-cyclopropyl)-amide] gave a pIC50 of 6.57. Turning to `O=C(N[C@@H]1CCN(CC2CC2)C[C@H]1C(=O)NC1(c2ncccn2)CC1)c1noc(-c2ccc(F)cc2F)c1F` (single isomer, unassigned) [Example 3.022a, (3R,4R)-1-Cyclopropylmethyl-4-{[5-(2,4-difluoro-phenyl)-4-fluoro-isoxazole-3-carbonyl]-amino}-piperidine-3-carboxylic acid (1-pyrimidin-2-yl-cyclopropyl)-amide or (3S,4S)-1-cyclopropylmethyl-4-{[5-(2,4-difluoro-phenyl)-4-fluoro-isoxazole-3-carbonyl]-amino}-piperidine-3-carboxylic acid (1-pyrimidin-2-yl-cyclopropyl)-amide], the pIC50 is 7.60. For the molecule `COc1ccccc1C(C)NC(=O)[C@H]1CN(CC2CC2)CC[C@@H]1NC(=O)c1cc(-c2ccc(F)cc2F)on1` (single isomer, unassigned) [Example 4.072a], the pIC50 was 8.10. As to `O=C(N[C@@H]1CCN(CC2CC2)C[C@H]1C(=O)NC1(c2ncccn2)CC1)c1cc(-c2c(F)cc(F)cc2F)on1` (single isomer, unassigned) [Example 30.20b, (3R*,4R*)-1-Cyclopropylmethyl-4-{[5-(2,4,6-trifluoro-phenyl)-isoxazole-3-carbonyl]-amino}-piperidine-3-carboxylic acid (1-pyrimidin-2-yl-cyclopropyl)-amide], the pIC50 was 8.40. Take `O=C(N[C@@H]1CCN(CC2CC2)C[C@H]1C(=O)NC1(c2ncccn2)CC1)c1cc(C2CC2)on1` (single isomer, unassigned) [Reference Compound 1a, (3R,4R)-4-[(5-Cyclopropyl-isoxazole-3-carbonyl)-amino]-1-cyclopropylmethyl-piperidine-3-carboxylic acid (1-pyrimidin-2-yl-cyclopropyl)-amide or (3S,4S)-4-[(5-cyclopropyl-isoxazole-3-carbonyl)-amino]-1-cyclopropylmethyl-piperidine-3-carboxylic Acid (1-pyrimidin-2-yl-cyclopropyl)-amide, reference compound]: the pIC50 (geometric mean) is < 5.00. The same measure, in the same setting: to `O=C(N[C@@H]1CCN(CC2CC2)C[C@H]1C(=O)NC1(c2ncccn2)CC1)c1cc(C2CC2)on1` (single isomer, unassigned) [Reference Compound 1b, (3R,4R)-4-[(5-Cyclopropyl-isoxazole-3-carbonyl)-amino]-1-cyclopropylmethyl-piperidine-3-carboxylic acid (1-pyrimidin-2-yl-cyclopropyl)-amide or (3S,4S)-4-[(5-cyclopropyl-isoxazole-3-carbonyl)-amino]-1-cyclopropylmethyl-piperidine-3-carboxylic Acid (1-pyrimidin-2-yl-cyclopropyl)-amide, reference compound] belongs < 5.00. Molecule `COC(=O)C1CN(C2CCCCC2)CCC1NC(=O)c1noc(-c2ccc(F)c(F)c2)n1` (stereo not drawn) [BB 1.18c] had a pIC50 of 6.92.

On to `CN(C)C(=O)[C@@H]1CN(CC2CC2)CC[C@H]1NC(=O)c1cc(-c2c(F)cc(F)cc2F)on1` [Example 1.1], for which the pIC50 is 6.89. The pIC50 values of the last two molecules are within 0.2 log units of each other. As to `Cc1cnc(CNC(=O)[C@@H]2CN(C3CCCCC3)CC[C@H]2NC(=O)c2cc(-c3ccc(F)cc3F)on2)s1` [Example 1.02], the pIC50 was 6.70. Molecule `O=C(N[C@@H]1CCN(C2CCCCC2)C[C@H]1C(=O)NCc1ccncc1)c1cc(-c2ccc(F)cc2F)on1` [Example 1.05] showed a pIC50 of 6.65. Take `CC(CNC(=O)[C@@H]1CN(C2CCCCC2)CC[C@H]1NC(=O)c1cc(-c2ccc(F)cc2F)on1)c1ccccc1` (stereo partly drawn) [Example 1.06]: the pIC50 is 6.14. The molecule `O=C(N[C@@H]1CCN(C2CCCCC2)C[C@H]1C(=O)N1CCC(c2ccccc2)C1)c1cc(-c2ccc(F)cc2F)on1` (stereo partly drawn) [Example 1.07] gave a negative logarithm of the IC50 (pIC50) of 6.25. This pIC50 and that of the molecule before are within 0.2 log units of each other.

As for `CC(C)(CC(F)(F)F)NC(=O)[C@@H]1CN(C2CCCCC2)CC[C@H]1NC(=O)c1cc(-c2ccc(F)cc2F)on1` [Example 1.08], the pIC50 is 6.25. With `C[C@@H](NC(=O)[C@@H]1CN(C2CCCCC2)CC[C@H]1NC(=O)c1cc(-c2ccc(F)cc2F)on1)c1cnccn1` [Example 1.09], the pIC50 is 7.46. Molecule `COCC(C)(C)NC(=O)[C@@H]1CN(CC2CC2)CC[C@H]1NC(=O)c1cn(-c2ccc(F)cc2F)nn1` [Example 1.11] showed a pIC50 of 6.27.

With `C[C@@H]1CCC[C@H]1N1CC[C@@H](NC(=O)c2cn(-c3ccc(F)cc3F)nn2)[C@H](C(=O)N[C@H](C)c2ccccn2)C1` [Example 1.12], the pIC50 was 6.10. `C[C@@H](NC(=O)[C@@H]1CN(C2CCCC2)CC[C@H]1NC(=O)c1cc(-c2c(F)cc(F)cc2F)on1)c1cnccn1` [Example 1.13] gave a pIC50 of 6.85. As to `C[C@@H](NC(=O)[C@@H]1CN(C2CCCCC2)CC[C@H]1NC(=O)c1cc(-c2ccc(F)cc2F)no1)C1CCC1` [Example 1.14], the negative logarithm of the IC50 (pIC50) is 6.45. With `C[C@@H]1CCC[C@H]1N1CC[C@@H](NC(=O)c2cc(-c3ccc(F)cc3F)no2)[C@H](C(=O)N(C)C)C1` [Example 1.15], the negative-log IC50 (pIC50) was 6.81. With `C[C@@H](NC(=O)[C@@H]1CN(C2CCCCC2)CC[C@H]1NC(=O)c1noc(-c2ccc(F)cc2F)n1)c1cnccn1` [Example 1.16], the pIC50 was 6.28. `O=C(N[C@@H]1CCN(C2CCCC2)C[C@H]1C(=O)NC1(c2ccccn2)CC1)c1cc(-c2c(F)cc(F)cc2F)on1` [Example 1.17] showed a pIC50 of 7.80. Regarding `O=C(N[C@@H]1CCN(CC2CC2)C[C@H]1C(=O)NC1(c2ncccn2)CC1)c1cc(-c2ccccc2C(F)(F)F)on1` [Example 1.19], the pIC50 is 6.53. The molecule `O=C(N[C@H]1CCN(CC2CC2)C[C@@H]1C(=O)NC1(c2cnccn2)CC1)c1cc(-c2ccc(F)cc2F)on1` [Example 1.179, (3S,4S)-1-Cyclopropylmethyl-4-{[5-(2,4-difluoro-phenyl)-isoxazole-3-carbonyl]-amino}-piperidine-3-carboxylic acid (1-pyrazin-2-yl-cyclopropyl)-amide] showed a pIC50 of 7.30. In the case of `O=C(N[C@H]1CCN(C2CCCC2)C[C@@H]1C(=O)NC1(c2cnccn2)CC1)c1cc(-c2ccc(F)cc2F)on1` [Example 1.181, (3S,4S)-1-Cyclopentyl-4-{[5-(2,4-difluoro-phenyl)-isoxazole-3-carbonyl]-amino}-piperidine-3-carboxylic acid (1-pyrazin-2-yl-cyclopropyl)-amide], the negative logarithm of the IC50 (pIC50) is 6.98. `O=C(N[C@H]1CCN(C2CCCC2)C[C@@H]1C(=O)NC1(c2cccnn2)CC1)c1cc(-c2ccc(F)cc2F)on1` [Example 1.182, (3S,4S)-1-Cyclopentyl-4-{[5-(2,4-difluoro-phenyl)-isoxazole-3-carbonyl]-amino}-piperidine-3-carboxylic acid (1-pyridazin-3-yl-cyclopropyl)-amide]: the pIC50 is 6.66. This pIC50 is 0.32 log units lower than that of the molecule before. For `Cc1cc(C)nc(C2(NC(=O)[C@H]3CN(C4CCCC4)CC[C@@H]3NC(=O)c3cc(-c4ccc(F)cc4F)on3)CC2)n1` [Example 1.184, (3S,4S)-1-Cyclopentyl-4-{[5-(2,4-difluoro-phenyl)-isoxazole-3-carbonyl]-amino}-piperidine-3-carboxylic acid [1-(4,6-dimethyl-pyrimidin-2-yl)-cyclopropyl]-amide], the pIC50 is 8.52. On to `Cc1cc(C)nc(C2(NC(=O)[C@H]3CN(CC4CC4)CC[C@@H]3NC(=O)c3cc(-c4ccc(F)cc4F)on3)CC2)n1` [Example 1.185, (3S,4S)-1-Cyclopropylmethyl-4-{[5-(2,4-difluoro-phenyl)-isoxazole-3-carbonyl]-amino}-piperidine-3-carboxylic acid [1-(4,6-dimethyl-pyrimidin-2-yl)-cyclopropyl]-amide], for which the negative-log IC50 (pIC50) was 8.05. Same read-out and setting: as for `CCN1CC[C@@H](NC(=O)c2cc(-c3ccc(F)cc3F)on2)[C@H](C(=O)N(C)C)C1` [Example 2.002], the figure is 6.17; as for `CN(C)C(=O)[C@@H]1CN(CC(C)(C)C)CC[C@H]1NC(=O)c1cc(-c2ccc(F)cc2F)on1` [Example 2.02], 6.61; as for `CC(C)N1CC[C@@H](NC(=O)c2cc(-c3ccc(F)cc3F)on2)[C@H](C(=O)N(C)CCc2ccccc2)C1` [Example 2.003], 7.47. Molecule `CN(C)C(=O)[C@@H]1CN(CC2CCCC2)CC[C@H]1NC(=O)c1cc(-c2ccc(F)cc2F)on1` [Example 2.03] had a pIC50 of 7.13. On the same count and under the same terms, to `CCN1CC[C@@H](NC(=O)c2cc(-c3ccc(F)cc3F)on2)[C@H](C(=O)N(C)CCc2ccccc2)C1` [Example 2.004] belongs 6.93; to `O=C(N[C@@H]1CCN([C@@H]2CCCC[C@H]2F)C[C@H]1C(=O)O)c1cc(-c2ccc(F)cc2F)on1` [Example 2.04], 6.32; to `CN(CCc1ccccc1)C(=O)[C@@H]1CN(C2CCCC2)CC[C@H]1NC(=O)c1cc(-c2ccc(F)cc2F)on1` [Example 2.005], 7.60. `CN(CCc1ccccc1)C(=O)[C@@H]1CN([C@@H]2CCCC[C@H]2O)CC[C@H]1NC(=O)c1cc(-c2ccc(F)cc2F)on1` [Example 2.05]: the pIC50 is 7.82. Compared with the last molecule, the pIC50 is 0.22 log units higher. For the molecule `CN(CCc1ccccc1)C(=O)[C@@H]1CN(CC2CC2)CC[C@H]1NC(=O)c1cc(-c2ccc(F)cc2F)on1` [Example 2.006], the negative-log IC50 (pIC50) is 7.82. `O=C(N[C@@H]1CCN([C@@H]2CCCC[C@H]2O)C[C@H]1C(=O)NC1(c2ncccn2)CC1)c1cc(-c2ccc(F)cc2F)on1` [Example 2.06]: the pIC50 is 8.40. The molecule `CC(NC(=O)[C@@H]1CN(C(C)C)CC[C@H]1NC(=O)c1cc(-c2ccc(F)cc2F)on1)c1ccccn1` (stereo partly drawn) [Example 2.007] gave a pIC50 of 7.06. `CC(C)CN1CC[C@H](NC(=O)c2cc(-c3ccc(F)cc3F)on2)[C@@H](C(=O)NC2(c3ncccn3)CC2)C1` [Example 2.07] had a pIC50 of 7.96.
